From US4201866A, “O-Hemi-succinate of propranolol” (American Home Products Corporation, priority 1977, dated 1980)
Several values for one entry are separate records, joined by “and”; a condition that tells them apart may be missing. Equal values may be shown once. Where a name gives a salt, the structure may show the parent alone. Read-outs that look alike come from different tables or passages of the source.

Legend:
[1] = Intravenous administration of propranolol HCl and propranolol-o-hemi-succinate HCl; plasma levels of free propranolol (Example 3); type: in vivo, beagle dogs; conditions: i.v., 20 mg propranolol HCl or equivalent
Description: (§1) Plasma was analyzed for free propranolol by a TLC fluorometric procedure. Two ml samples were mixed with 2 ml of pH 10 buffer and extracted with 25 ml of ethyl ether. A 20 ml aliquot from the ether phase was evaporated to dryness and the dry residue was dissolved in 100 μl of ethanol. Twenty-five μl aliquots were spotted on TLC plates of silica gel along with standard solutions of propranolol. The plates were developed in a saturated tank containing the solvent system methanol (100 ml): concentrated NH4 OH (0.4 ml). After development, the plates were dried and sprayed with a 50% solution of propylene glycol in water. They were then read in the fluorescence mode of a Schoeffel spectrodensitometer. The limit of reliable quantitation was 2 ng. of propranolol per ml of plasma.
In this experiment, the same four dogs used in Example 2 were administered a 20 mg intravenous dose of propranolol HCl on one experimental day and an equivalent dose of the o-hemi-succinate on a second day. A period of one week elapsed between each administration. Blood samples were collected and analyzed as above.

[2] = Oral administration of propranolol-o-hemi-succinate HCl and propranolol HCl; plasma levels of free propranolol (Example 2); type: in vivo, beagle dogs; conditions: 80 mg propranolol HCl or equivalent
Description: In this experiment, four beagle dogs were given an 80 mg. oral dose of propranolol HCl or an equivalent dose of the o-hemi-succinate. The animals were divided into two groups of two, each group receiving the drugs according to a crossover design. The crossover experiment was repeated twice. A period of at least one week elapsed between each dosing day. Blood samples were obtained at regular intervals after dosing a plasma was analyzed for free propranolol concentrations.
as §1

[3] = cited from earlier work
[4] = Oral administration of a reduced dose of propranolol-o-hemi-succinate hydrochloride; plasma levels of free propranolol (Example 4); type: in vivo, beagle dogs
Description: Two beagle dogs were given an oral dose of 13.4 mg of propranolol-O-hemi-succinate hydrochloride (equivalent to 10 mg. propranolol HCl). Blood samples were obtained at regular intervals after drug administration and plasma analyzed for free propranolol. Plasma levels of free propranolol were compared to those obtained following administration of 80 mg dose of propranolol HCl.

CC(C)NCC(O)COc1cccc2ccccc12 (centres unmarked) [propranolol HCl, 1-isopropyl-amino-3-(1-naphthoxy)-2-propanol]
Plasma level of free propranolol ([1]; 0 h, individual dogs): 0 ng/mL
Mean plasma level of free propranolol ([1]; 0 h, mean): 0 ng/mL
Plasma level of free propranolol ([1]; 1/2 hr after dosing, individual dogs, 30 min): 232 ng/mL and 269 ng/mL and 144 ng/mL
Plasma level of free propranolol ([1]; 5 min after dosing, individual dogs, 5 min): 391 ng/mL and 312 ng/mL and 376 ng/mL and 194 ng/mL
Plasma level of free propranolol ([1]; 10 min after dosing, individual dogs, 10 min): 368 ng/mL and 319 ng/mL and 177 ng/mL
Plasma level of free propranolol ([1]; 15 min after dosing, individual dogs, 15 min): 320 ng/mL and 271 ng/mL and 149 ng/mL
Plasma level of free propranolol ([1]; 1 hr after dosing, individual dogs, 60 min): 207 ng/mL and 229 ng/mL and 128 ng/mL
Plasma level of free propranolol ([1]; 2 hr after dosing, individual dogs, 120 min): 149 ng/mL and 119 ng/mL and 122 ng/mL
Plasma level of free propranolol ([1]; 4 hr after dosing, individual dogs, 240 min): 114 ng/mL and 87 ng/mL and 61 ng/mL
Plasma level of free propranolol ([1]; 6 hr after dosing, individual dogs, 360 min): 45 ng/mL and 28 ng/mL and 39 ng/mL
concentration at 0.5 h ([1]; dog, plasma, iv, 20 mg, 1/2 hr after dosing, individual dogs, read-out: Plasma level of free propranolol): 280 ng/mL
concentration at 0.5 h ([1]; dog, plasma, iv, 20 mg, 1/2 hr after dosing, mean, read-out: Mean plasma level of free propranolol): 231 ng/mL
concentration at 5 min ([1]; dog, plasma, iv, 20 mg, 5 min after dosing, mean, read-out: Mean plasma level of free propranolol): 318 ng/mL
concentration at 10 min ([1]; dog, plasma, iv, 20 mg, 10 min after dosing, mean, read-out: Mean plasma level of free propranolol): 288 ng/mL
concentration at 0.25 h ([1]; dog, plasma, iv, 20 mg, 15 min after dosing, mean, read-out: Mean plasma level of free propranolol): 247 ng/mL
concentration at 1 h ([1]; dog, plasma, iv, 20 mg, 1 hr after dosing, individual dogs, read-out: Plasma level of free propranolol): 240 ng/mL
concentration at 1 h ([1]; dog, plasma, iv, 20 mg, 1 hr after dosing, mean, read-out: Mean plasma level of free propranolol): 201 ng/mL
concentration at 2 h ([1]; dog, plasma, iv, 20 mg, 2 hr after dosing, individual dogs, read-out: Plasma level of free propranolol): 191 ng/mL
concentration at 2 h ([1]; dog, plasma, iv, 20 mg, 2 hr after dosing, mean, read-out: Mean plasma level of free propranolol): 145 ng/mL
concentration at 4 h ([1]; dog, plasma, iv, 20 mg, 4 hr after dosing, mean, read-out: Mean plasma level of free propranolol): 79 ng/mL
concentration at 6 h ([1]; dog, plasma, iv, 20 mg, 6 hr after dosing, individual dogs, read-out: Plasma level of free propranolol): 53 ng/mL
concentration at 6 h ([1]; dog, plasma, iv, 20 mg, 6 hr after dosing, mean, read-out: Mean plasma level of free propranolol): 41 ng/mL
AUC at 6 h ([1]; dog, plasma, iv, 20 mg, individual dogs, read-out: AUC 0-6 hr of free propranolol): 974 ng·h/mL
AUC at 6 h ([1]; dog, plasma, iv, 20 mg, read-out: average AUC of free propranolol): 746 ng·h/mL
AUC 0-6 hr of free propranolol ([1]; individual dogs, 360 min): 744 ng·h/mL and 615 ng·h/mL and 534 ng·h/mL
Plasma level of free propranolol ([2]; 0 h, individual dogs): 0 ng/mL
Mean plasma level of free propranolol ([2]; 0 h, mean of Study 1, Study 2 or overall): 0 ng/mL
C.V. of overall mean AUC 0-6 hr [2]: 65%
s.d. of overall mean AUC 0-6 hr [2]: 87 ng·h/mL
AUC 0-6 hr of free propranolol ([2]; individual dogs, listed as propranolol hydrochloride, 360 min): 69 ng·h/mL and 63 ng·h/mL and 29 ng·h/mL and 160 ng·h/mL and 189 ng·h/mL and 171 ng·h/mL and 297 ng·h/mL and 99 ng·h/mL
Plasma level of free propranolol ([2]; 1/2 hr after dosing, individual dogs): 0 ng/mL
Plasma level of free propranolol ([2]; 1/2 hr after dosing, individual dogs, 30 min, listed as propranolol hydrochloride, 30 min): 23 ng/mL and 103 ng/mL and 24 ng/mL
Plasma level of free propranolol ([2]; 1/2 hr after dosing, individual dogs, listed as propranolol hydrochloride): trace
Plasma level of free propranolol ([2]; 1 hr after dosing, individual dogs, listed as propranolol hydrochloride): trace and 0 ng/ml
Plasma level of free propranolol ([2]; 1 hr after dosing, individual dogs, listed as propranolol hydrochloride, 60 min): 11 ng/mL and 56 ng/mL and 31 ng/mL and 101 ng/mL and 24 ng/mL
Plasma level of free propranolol ([2]; 2 hr after dosing, individual dogs, listed as propranolol hydrochloride): trace
Plasma level of free propranolol ([2]; 2 hr after dosing, individual dogs, listed as propranolol hydrochloride, 120 min): 23 ng/mL and 14 ng/mL and 45 ng/mL and 51 ng/mL and 65 ng/mL and 19 ng/mL
Plasma level of free propranolol ([2]; 4 hr after dosing, individual dogs, listed as propranolol hydrochloride): trace
Plasma level of free propranolol ([2]; 4 hr after dosing, individual dogs, listed as propranolol hydrochloride, 240 min): 26 ng/mL and 14 ng/mL and 12 ng/mL and 36 ng/mL and 33 ng/mL and 17 ng/mL
Plasma level of free propranolol ([2]; 6 hr after dosing, individual dogs, listed as propranolol hydrochloride): 0 ng/ml and trace
Plasma level of free propranolol ([2]; 6 hr after dosing, individual dogs, listed as propranolol hydrochloride, 360 min): 17 ng/mL and 21 ng/mL and 6 ng/mL
half-life ([2]; dog, plasma): 1.8 h
AUC at 6 h ([2]; dog, plasma, po, 80 mg, read-out: average AUC (0-6 hr.) of free propranolol, overall study): 132 ng·h/mL
unchanged active material reaching the systemic circulation after oral administration ([3]; because of extensive metabolism): little unchanged active material
patient to patient variation of plasma levels ([3]; oral): large patient to patient variation
Plasma level of free propranolol ([4]; 0 h, 80 mg propranolol HCl or 13.4 mg hemi-succinate HCl, individual dogs): 0
AUC of free propranolol ([4]; 13.4 mg hemi-succinate HCl or 80 mg propranolol HCl, dog #353 (101, 92), dog #250 (114, 168), 360 min): 168
Plasma level of free propranolol ([4]; 1/2 hour after dosing, 80 mg propranolol HCl or 13.4 mg hemi-succinate HCl, individual dogs, 30 min): 18
Plasma level of free propranolol ([4]; 1 hour after dosing, 80 mg propranolol HCl or 13.4 mg hemi-succinate HCl, individual dogs, 60 min): 44
Plasma level of free propranolol ([4]; 2 hours after dosing, 80 mg propranolol HCl or 13.4 mg hemi-succinate HCl, individual dogs, 120 min): 51 and 24
Plasma level of free propranolol ([4]; 4 hours after dosing, 80 mg propranolol HCl or 13.4 mg hemi-succinate HCl, individual dogs, 240 min): 26 and 7
Plasma level of free propranolol ([4]; 6 hours after dosing, 80 mg propranolol HCl or 13.4 mg hemi-succinate HCl, individual dogs): 0
AUC at 6 h ([4]; dog, plasma, po, 80 mg, 13.4 mg hemi-succinate HCl or 80 mg propranolol HCl, dog #353 (101, 92), dog #250 (114, 168)): 92 ng·h/mL
concentration at 0.5 h ([4]; dog, plasma, po, 80 mg, 1/2 hour after dosing, 80 mg propranolol HCl or 13.4 mg hemi-succinate HCl, individual dogs, read-out: Plasma level of free propranolol): 10 ng/mL
concentration at 1 h ([4]; dog, plasma, po, 80 mg, 1 hour after dosing, 80 mg propranolol HCl or 13.4 mg hemi-succinate HCl, individual dogs, read-out: Plasma level of free propranolol): 38 ng/mL
concentration at 6 h ([4]; dog, plasma, po, 80 mg, 6 hours after dosing, 80 mg propranolol HCl or 13.4 mg hemi-succinate HCl, individual dogs, read-out: Plasma level of free propranolol): 9 ng/mL
